Test results from PubChem BioAssay AID1963979 (Molecular Pharmacology Branch, DTP, NCI, 2024).

Test system: 361931-004-R-J1-PDC multicell spheroid viability
Assay: Anticancer human tumor 361931-004-R-J1-PDC patient-derived colon adenocarcinoma cell line growth inhibition [PI3K]
Conditions: for IC50: curve of first compound; for viability, T/C: stronger effect = lower value
Summary of the method: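 Combination activity was assessed by viability in multicellular tumor spheroids carrying HUVEC and MSC components. Agents were tested with PI3K inhibitors from a Cmax-based top dose (or 10 microM) downward in half-log increments.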
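Note: spheroids exposed to agents for seven days before readout.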

**Q.** CC(C)NCC(C(=O)N1CCN(c2ncnc3c2C(C)CC3O)CC1)c1ccc(Cl)cc1 (configuration not stated) + CC(Nc1ncnc2nc[nH]c12)c1cc2cccc(Cl)c2c(=O)n1-c1ccccc1 was tested. Which IC50 (second compound 0.0316 µM) did it give?
**A.** Its IC50 is 3.51 µM.

**Q.** What about the IC50 (second compound 0.1 µM) of the same compound?
**A.** The IC50 was 3.26 µM.

**Q.** What about the IC50 (second compound 0.316 µM) of the same compound?
**A.** Its IC50 is 2.91 µM.

**Q.** And the IC50 (second compound 1 µM)?
**A.** The IC50 was 4.19 µM.

**Q.** And the IC50 (second compound 3.16 µM)?
**A.** The IC50 was 2.99 µM.

**Q.** What about the IC50 (second compound 10 µM) of the same compound?
**A.** The IC50 was 3.19 µM.

**Q.** What about the viability, T/C (second compound 0.0316 µM, first compound 0.0316 µM) of the same compound?
**A.** The viability, T/C was 99.7%.

**Q.** And the viability, T/C (second compound 0.0316 µM, first compound 0.1 µM)?
**A.** The viability, T/C was 97.3%.

**Q.** What about the viability, T/C (second compound 0.0316 µM, first compound 0.316 µM) of the same compound?
**A.** Its viability, T/C is 99%.

**Q.** And the viability, T/C (second compound 0.0316 µM, first compound 1 µM)?
**A.** Its viability, T/C is 78%.

**Q.** And the viability, T/C (second compound 0.0316 µM, first compound 3.16 µM)?
**A.** The viability, T/C was 52.6%.

**Q.** And the viability, T/C (second compound 0.0316 µM, first compound 10 µM)?
**A.** The viability, T/C was 34.3%.

**Q.** What about the viability, T/C (second compound 0.1 µM, first compound 0.0316 µM) of the same compound?
**A.** The viability, T/C was 104%.

**Q.** And the viability, T/C (second compound 0.1 µM, first compound 0.1 µM)?
**A.** The viability, T/C was 99.3%.

**Q.** And the viability, T/C (second compound 0.1 µM, first compound 0.316 µM)?
**A.** The viability, T/C was 99.8%.

**Q.** And the viability, T/C (second compound 0.1 µM, first compound 1 µM)?
**A.** The viability, T/C was 81.3%.

**Q.** And the viability, T/C (second compound 0.1 µM, first compound 3.16 µM)?
**A.** Its viability, T/C is 50.8%.

**Q.** And the viability, T/C (second compound 0.1 µM, first compound 10 µM)?
**A.** Its viability, T/C is 31.7%.

**Q.** What about the viability, T/C (second compound 0.316 µM, first compound 0.0316 µM) of the same compound?
**A.** The viability, T/C was 101%.

**Q.** And the viability, T/C (second compound 0.316 µM, first compound 0.1 µM)?
**A.** Its viability, T/C is 104%.

**Q.** What about the viability, T/C (second compound 0.316 µM, first compound 0.316 µM) of the same compound?
**A.** The viability, T/C was 94%.

**Q.** What about the viability, T/C (second compound 0.316 µM, first compound 1 µM) of the same compound?
**A.** Its viability, T/C is 79.1%.

**Q.** And the viability, T/C (second compound 0.316 µM, first compound 3.16 µM)?
**A.** The viability, T/C was 47.4%.

**Q.** What about the viability, T/C (second compound 0.316 µM, first compound 10 µM) of the same compound?
**A.** Its viability, T/C is 29.8%.

**Q.** What about the viability, T/C (second compound 1 µM, first compound 0.0316 µM) of the same compound?
**A.** The viability, T/C was 106%.

**Q.** And the viability, T/C (second compound 1 µM, first compound 0.1 µM)?
**A.** Its viability, T/C is 104%.

**Q.** And the viability, T/C (second compound 1 µM, first compound 0.316 µM)?
**A.** The viability, T/C was 95%.

**Q.** What about the viability, T/C (second compound 1 µM, first compound 1 µM) of the same compound?
**A.** Its viability, T/C is 86.1%.

**Q.** What about the viability, T/C (second compound 1 µM, first compound 3.16 µM) of the same compound?
**A.** Its viability, T/C is 54.8%.

**Q.** And the viability, T/C (second compound 1 µM, first compound 10 µM)?
**A.** The viability, T/C was 31.9%.

**Q.** What about the viability, T/C (second compound 3.16 µM, first compound 0.0316 µM) of the same compound?
**A.** Its viability, T/C is 105%.

**Q.** And the viability, T/C (second compound 3.16 µM, first compound 0.1 µM)?
**A.** The viability, T/C was 107%.

**Q.** And the viability, T/C (second compound 3.16 µM, first compound 0.316 µM)?
**A.** Its viability, T/C is 98.3%.

**Q.** What about the viability, T/C (second compound 3.16 µM, first compound 1 µM) of the same compound?
**A.** Its viability, T/C is 79.6%.

**Q.** And the viability, T/C (second compound 3.16 µM, first compound 3.16 µM)?
**A.** Its viability, T/C is 48.6%.

**Q.** What about the viability, T/C (second compound 3.16 µM, first compound 10 µM) of the same compound?
**A.** Its viability, T/C is 26.8%.

**Q.** And the viability, T/C (second compound 10 µM, first compound 0.0316 µM)?
**A.** Its viability, T/C is 106%.

**Q.** And the viability, T/C (second compound 10 µM, first compound 0.1 µM)?
**A.** The viability, T/C was 93.9%.

**Q.** And the viability, T/C (second compound 10 µM, first compound 0.316 µM)?
**A.** Its viability, T/C is 102%.

**Q.** And the viability, T/C (second compound 10 µM, first compound 1 µM)?
**A.** Its viability, T/C is 76.7%.

**Q.** And the viability, T/C (second compound 10 µM, first compound 3.16 µM)?
**A.** The viability, T/C was 51.5%.

**Q.** What about the viability, T/C (second compound 10 µM, first compound 10 µM) of the same compound?
**A.** Its viability, T/C is 26.7%.
